Experimental data reported in US7850994B1, “Xerogel films for the controlled release of pharmaceutically active molecules” (The Trustees of the University of Pennsylvania, priority 2005, dated 2010).
Where “and” joins values, the source holds several entries; their conditions need not be identical. Equal entries are not always repeated.

Tests used:
Staphylococcus aureus = settings: against Staphylococcus aureus; cited from earlier work
[1] = Stability / precipitation of vancomycin in sols; format: physicochemical; settings: water-free sol prepared as described by Böttcher et al
From the text: Vancomycin is a water-soluble drug. Sols with nominal vancomycin (Vancomycin-HCL, NovaPlus) concentrations of 5, 10, and 20% by weight were made by adding corresponding amounts of vancomycin dissolved in DI water to the sol. Although sols with various vancomycin concentrations were stable for several days, only freshly prepared mixtures were used for the application of the coatings.
Modification of the process of sol preparation was required to avoid the precipitation. It was achieved by adding water at the TEOS hydrolysis step. […] The sols with vancomycin concentrations varying from 3 to 30% by weight were stable over several days. The sols of modified compositions were successfully used for depositing vancomycin-loaded thin xerogel films to a Ti alloy substrate.

## CN[C@H](CC(C)C)C(=O)N[C@H]1C(=O)N[C@@H](CC(N)=O)C(=O)N[C@H]2C(=O)N[C@H]3C(=O)N[C@H](C(=O)N[C@H](C(=O)O)c4cc(O)cc(O)c4-c4cc3ccc4O)[C@H](O)c3ccc(c(Cl)c3)Oc3cc2cc(c3O[C@@H]2O[C@H](CO)[C@@H](O)[C@H](O)[C@H]2O[C@H]2C[C@](C)(N)[C@H](O)[C@H](C)O2)Oc2ccc(cc2Cl)[C@H]1O [vancomycin]
Staphylococcus aureus
  Minimal Inhibitory Concentration (MIC): 1.5 to 3 µg/mL and 1.5 to 3.12 µg/mL
[1]
  precipitation on adding a water solution of vancomycin to a sol: immediate precipitation of the drug in the sol
